Legend:
sleep/wake architecture = test: Sleep/wake architecture after 5-HT and GR38032F (Example 3); format: in vivo, rat (Sprague-Dawley); settings: i.p.
Method: Sleep and waking states were assessed using the biparietal EEG and nuchal EMG signals on 10-second epochs as described by Bennington et al. [Sleep, 17:28–36 (1994)]. This software discriminated wakefulness (W) as a high frequency low amplitude EEG with a concomitant high EMG tone, NREM sleep by increased spindle and […] activity together with decreased EMG tone, and REM sleep by a […] activity and an absence of EMG tone. Sleep efficiency was measured as the percentage of total recorded epochs staged as NREM or REM sleep.
Each animal was recorded on four occasions, with recordings for an individual animal separated by at least three days. Fifteen minutes prior to each recording, each animal received (via intraperitoneal injection), in random order, one of the following: (a) saline solution (control); (b) 0.79 mg/kg serotonin; (c) 0.1 mg/kg GR38032F plus 0.79 mg/kg serotonin; or (d) 0.1 mg/kg GR38032F. For the GR38032F+serotonin test group, 0.1 mg/kg GR38032F was administered at time 09:30 followed by 0.79 mg/kg serotonin at time 09:45. Polygraphic recordings were made from 10:00–16:00.
Respiration BP, EEG, and EMG data were determined and recorded via the experimental procedure as specifically set forth above in Example 2. As in Example 2, sleep apneas, defined as cessation of respiratory effort for at least 2.5 s, were scored for each recording session and were associated with the stage in which they occurred: NREM or REM sleep. The duration requirement of 2.5 s represents at least two “missed” breaths, which is analogous to a 10-s apnea duration requirement in humans.
The effects of sleep stage (NREM vs REM) and injection (control vs. administration of either serotonin alone, GR38032F+serotonin, or GR38032F alone) on apnea indexes, respiratory pattern, BP, and HP were tested using analysis of variance (ANOVA) with repeated measures. Multiple comparisons were controlled using Fisher's protected least-significance difference (PLSD). One-way ANOVA was also performed by nonparametric (Kruskal-Wallis) analysis. Conclusions using parametric and nonparametric ANOVA were identical in all cases.

cardiovascular variables = test: Radiotelemetry of blood pressure and heart period after GR38032F (Example 2); format: in vivo, rat (Sprague-Dawley); settings: 1 mg/kg i.p.
Excerpt: After surgery, all animals were allowed to recover for one week before being subjected to another surgery that involved implantation of a radiotelemetry transmitter (TA11-PXT, Data Sciences International, St. Paul, Minn.) for monitoring blood pressure (BP) and heart period (HP), estimated as pulse interval. After the animals were anesthetized (as described above), the hair from the subxiphoid space to the pelvis was removed. The entire area was scrubbed with iodine and rinsed with alcohol and saline. A 4–6 cm midline abdominal incision was made to allow good visualization of the area from the bifurcation of the aorta to the renal arteries. A retractor was used to expose the contents of the abdomen and the intestine was held back using saline moistened gauze sponges. The aorta was dissected from the surrounding fat and connective tissues using sterile cotton applicators. A 3-0 silk suture was placed beneath the aorta and traction was applied to the suture to restrict the blood flow. Then the implant (TA11-PXT) was held by forceps while the aorta was punctured just cranial to the bifurcation using a 21-gauge needle bent at the beveled end. The tip of the catheter was inserted under the needle using the needle as a guide until the thin-walled BP sensor section was within the vessel. Finally, one drop of tissue adhesive (Vetbond®, 3M, Minneapolis, Minn.) was applied to the puncture site and covered with a small square of cellulose fiber (approximately 5 mm^2) so as to seal the puncture after catheter insertion. The radio implant was attached to the abdominal wall by 3-0 silk suture, and the incision was closed in layers. After the second surgery, animals were again allowed a one week recovery period prior to administration of the serotonin receptor antagonist and subsequent physiological recording.
Physiological parameters (see below) from each animal were recorded on 2 occasions in random order, with recordings for an individual animal separated for at least 3 days. Fifteen minutes prior to each recording each animal received a systemic injection (1 ml/kg intraperitoneal bolus injection) of either saline (control) or 1 mg/kg of ondansetron (GR38032F; 1,2,3,9-tetrahydro-9-methyl-3-[(2-methylimidazol-1-yl)methyl]carbazole-4-one, hydrochloride, dihydrate; Glaxo Wellcome, Inc., Research Triangle Park, N.C.). Polygraphic recordings were made from hours 10:00–16:00.
Similar software (Experimenters' Workbench; Datawave Technologies, Longmont, Colo.) was employed to analyze the blood pressure waveform; for each beat of each recording, systolic (SBP) and diastolic (DBP) blood pressures and pulse interval were measured. The pulse interval provided a beat by beat estimate of HP. Mean BP (MBP) was estimated according to the weighted average of SBP and DBP for each beat: MBP=DBP+(SBP−DBP)/3. The parameters for each beat were also classified according to the sleep/wake state and recording hour during which they occurred.

[1] = percent recording time, 6 hours, 5-HT 0.79 mg/kg, GR38032F 0.1 mg/kg, mean ± SE

Cc1nccn1CC1CCc2c(c3ccccc3n2C)C1=O.Cl.O.O (centres unmarked) [GR38032F, 1,2,3,9-tetrahydro-9-methyl-3-[(2-methylimidazol-1-yl)methyl]carbazole-4-one, hydrochloride, dihydrate]
effect on sleep architecture (sleep/wake architecture; 6 hours of polygraphic recording): had no effect on sleep architecture
% NREM (sleep/wake architecture; [1]): 63.4 ± 5.7%
% REM (sleep/wake architecture; [1]): 7.3 ± 2.3%
% Wakefulness (sleep/wake architecture; [1]): 28.8 ± 6.4%
HP, NREM (cardiovascular variables; NREM sleep, mean ± SE): 189 ± 3 ms
Mean BP, NREM (cardiovascular variables; NREM sleep, mean ± SE): 112 ± 17 mm Hg
HP, REM (cardiovascular variables; REM sleep, mean ± SE): 190 ± 3 ms
Mean BP, REM (cardiovascular variables; REM sleep, mean ± SE): 110 ± 17 mm Hg
effect on cardiovascular variables (MBP and HP during W, NREM, REM sleep) (cardiovascular variables; p>0.1 for each variable): no effect on any cardiovascular variable
HP, W (cardiovascular variables; wakefulness, mean ± SE): 183 ± 3 ms
Mean BP, W (cardiovascular variables; wakefulness, mean ± SE): 113 mm Hg

Source: US7160898B2, “Pharmacological treatment for sleep apnea” (Board of Trustees of The University of Illinois, priority 2002, dated 2007)
